Reference: PubChem BioAssay (NCI)
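Briefly, cells in 96-well plates were exposed to five compound concentrations for 48 h, and endpoints were estimated by linear interpolation. TGI denotes the concentration required for complete inhibition of growth.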

Assays:
Test in all cases: growth of human tumour cells (NCI), 48 h
SF-295 CNS = test system: SF-295 CNS
SW-620 colon = test system: SW-620 colon
SK-OV-3 ovarian = test system: SK-OV-3 ovarian
786-0 renal = test system: 786-0 renal
KM12 colon = test system: KM12 colon
HCT-15 colon = test system: HCT-15 colon
EKVX NSCLC = test system: EKVX NSCLC
IGROV1 ovarian = test system: IGROV1 ovarian
MDA-N = test system: MDA-N
M14 melanoma = test system: M14 melanoma
SNB-75 CNS = test system: SNB-75 CNS
PC-3 prostate = test system: PC-3 prostate

SMILES | TGI (SF-295 CNS) [µM] | TGI (SW-620 colon) [µM] | TGI (SK-OV-3 ovarian) [µM] | TGI (786-0 renal) [µM] | TGI (KM12 colon) [µM] | TGI (HCT-15 colon) [µM] | TGI (EKVX NSCLC) [µM] | TGI (IGROV1 ovarian) [µM] | TGI (MDA-N) [µM] | TGI (M14 melanoma) [µM] | TGI (SNB-75 CNS) [µM] | TGI (PC-3 prostate) [µM]
COC(=O)C(C(=O)OC)C1CC(=O)c2c(Br)sc(Br)c21 (stereo not drawn) | 60.9 | 26.4 | 44 | > 100 | > 100 | 21.6 | 32.4 | 29.3 | > 100 | 40.8 | 75 | 29
Oc1ccc2ccccc2c1OCc1nnc(CCCCCCCCc2nnc(COc3c(O)ccc4ccccc34)o2)o1 | > 100 | > 100 | > 100 | > 100 | > 100 | > 100 | > 100 | > 100 | > 100 | > 100 | > 100 | > 100
COC(=O)C1[C@H](C(=O)OC)C1(Br)CBr (stereo partly drawn) | > 100 | > 100 | > 100 | > 100 | > 100 | > 100 | > 100 | > 100 | > 100 | > 100 | > 100 | > 100
CC1(O)C(=O)OC2CC([C@]3(O)CCC4[C@@H]5C[C@H]6O[C@]67[C@@H](O)C=CC(=O)[C@]7(C)C5CC[C@@]43C)C1(C)C2 (stereo partly drawn) | > 100 | 11.1 | > 100 | 25.6 | > 64.1 | 51.9 | > 100 | > 31.6 | 17.9 | 26.4 | > 94.1 | 50.5
